Laboratory results: US5989555A, “Extracts of Larrea tridentata having antiviral activity and their use for treating viral infections” (priority 1996, dated 1999)
“And” between values parts separate entries of the source, which are not always exact repeats. Equal entries are not always repeated.

Columns and labels:
HIV-LTR = assay: in vitro HIV gene transcription assay (Hela whole-cell extract, pLTR-1CAT template); type: biochemical, HIV-1; conditions: for CPM of run off transcription: 329 nt run off, DMSO control 625; for % Transcription (% T): DMSO control = 100
Procedure: This procedure was utilized to test lignans from the creosote bush including Rev.10:7 lignans (FB3 and FB5).
The inhibitory activity of the lignans prepared by the large scale isolation described in FIG. 6 is shown. The activity of the cyclolignans FB3 and FB5 is highlighted. Compounds FB1, FB2 and FB4 were each tested at 100, 120, 140 μg/ml. Rev.10:7 lignans (FB3 and FB5) were tested only at 100, 120 μg/ml.
The DNA used as template was the plasmid pLTR-1CAT, which contains HIV-LTR (-453 to +126) fused to the prokaryotic chloramphenicol acetyltransferase (CAT) gene. Unlabeled nucleoside triphosphates were from Pharmacia, and [α-^32 P]UTP (400 Ci/mmol) from Amersham.
DNA digests were then subjected to twice phenol-chloroform-isoamyl alcohol […] extractions and subsequently precipitated by ethanol. Hela whole-cell extracts (Manley extract) containing the polymerase and the transcription factors was prepared as previously described (Manley et al., Proc. Acad. Sci. USA 77:3855-3859 (1988)).
The transcription assay has been previously described (Bohan et al., Gene Expression 2:391-407 (1992)). Extracts prepared by the method of Manley, described above, (40 μg/reaction) and DNA template (0.4 μg/reaction)were preincubated with 0.4 μl of various concentrations of test compounds for 15 min at 30° C. The in vitro transcription buffer of Manley extract contained 10 mM HEPES (pH 7.9), 50 mM KCl, 0.5 mM EDTA, 1.5 mM […], 6.25 mM MgCl2, and 8.5% glycerol. Unlabeled nucleoside triphosphates and [α-^32 P]UTP (400 Ci/mmol) were mixed and added to the reaction mixture. The final volume of the reaction was brought to 15 μl followed by 1 hour incubation at 30° C. as illustrated in FIG. 9.
The transcription reaction was terminated by addition of 300 μl of stop solution (20 mM tris-HCl (pH 7.8), 150 mM NaCl, and 0.2% SDS), and extracted with equal volume of phenol. RNA in the aqueous phase was precipitated with 2.5 volumes of EtOH and 0.1 volume of 3 M sodium acetate. Following centrifugation, RNA pellets were washed with EtOH, dried and resuspended in 15 μl of denaturation mix containing 50% formamide:50% of 2×TBE, Xylene cyanol and bromophenol blue. The mixture was heated at 90° C. for 3 min, and electrophoresed at 400 V in 4% polyacrylamide (19:1 acrylamide:bisacrylamide) gel containing 7 M urea (prerun at 200 V for 30 min) and 1×TBE. The gel was exposed to Kodak XR-5 film at -70° C. with intensifying screens for autoradiography. Table 4 illustrates the same results in numerical form after radioactivity counts of the 329 nt run off transcription spots.

HIV-1 Tat protein = assay: cells; type: cell-based; conditions: Table 3, samples run in duplicate, each value mean of two determinations; for inhibition at 10 µg/mL / inhibition at 30 µg/mL: Human immunodeficiency virus 1, COS; for inhibition at 10 µg/mL: read-out: % Inhibition of Tat Transactivation, 10 μg/ml; for inhibition at 30 µg/mL: read-out: % Inhibition of Tat Transactivation, 30 μg/ml
Procedure: […] P. Loeffler and J. P. Behr, Meth. Enzymol. 217:599 (1993)). Cells were incubated for 12-15 hours after transfection before the extract was added at the various concentrations noted. The cultures were incubated for 48 hours, after which 250 μl of the culture supernatant was assayed for SEAP activity as described in Example 4.
The SEAP Assay. The "SEcreted Alkaline Phosphatase" assay for Tat transactivation has been described previously (Berger et al., Gene 66:1-10, 1988; Bohan et al., Gene Expression 2(4):391-407, 1992). The details of the entire procedure for the SEAP inhibition assay as used herein have been described (Gnabre et al. Journal of Chromatography A 719:353-364 (1996)).
The secreted alkaline phosphatase analysis was performed as originally described by Berger et al. In this assay, a DNA expression vector wherein a structural gene encoding a secreted alkaline phosphatase is driven by an enhancer-linked promoter is transfected into target cells. The cells are then exposed to compounds which affect the binding/activation of the transcription regulatory proteins, and the amount of SEAP activity in the medium is measured.
As to the alkaline phosphatase assay, briefly, a 250-μl aliquot was removed from COS cell culture supernatants, heated at 65° C. for 5 minutes to selectively inactivate endogenous phosphatase (SEAP is heat stable) and centrifuged in a microfuge for 2 minutes. […] of 2×SEAP assay buffer (1.0 M diethanolamine, pH 9.8; 0.5 mM MgCl2; 10 mM L-homoarginine) was added to 100-μl aliquot of the samples. The solution was mixed and transferred into a 96-well flat-bottom culture dish (Corning). Twenty μl of pre-warmed substrate solution (120 mM p-nitrophenylphosphate dissolved in 1×SEAP assay buffer) were dispensed with a multipipeter into each well containing the reaction mixture. The A405 of the reaction was read at 5-minute intervals at 37° C. for 60 minutes using an EL340i microplate reader (Bio-tek Instruments, Inc.) with 5-second automatic shakings before each reading. The change in absorbance was plotted against time in the standard assay of SEAP induction. In the drug screening assay, the percent inhibition of SEAP expression was calculated at its 30 min endpoint as follows:
% Inhibition=100-[(CT^+ -C^+)/(CT^- -C^-)]×100
The 3-Magi extract was monitored by SiO2 TLC with cerium sulfate charring, 2% CeSO4 (w/V) in 5.6% H2 SO4 (v/v), and by the SEAP assay for anti Tat-TRS activity. For the SEAP assay, test materials were dissolved in 10% DMSO solution made in calcium-free, magnesium-free PBS (Ca--Mg-free PBS). The suspension was centrifuged and the stock solution (10 mg/ml) was filter-sterilized using a Millex-GS […] filter (Millipore). Appropriate dilutions of the stock solution were prepared in a final DMSO concentration of 0.2% in Ca--Mg-free PBS to obtain the various concentrations of test compounds.
The 3-Magi extract prepared as in Examples 1 and 2 was assayed by the SEAP assay for anti Tat-TRS activity. […] Briefly, a day before DNA transfection, Linbro® 24 flat bottom wells of 17-mm diameter plates were pretreated with 0.5 ml sterile solution of 0.1% gelatin. The plates were kept in a tissue culture hood for 1 hour (all transfection steps were performed in the hood, unless otherwise stated). The gelatin solution was aspirated and the plates were washed with 0.5 ml of Iscove's Modified Delbecco's Medium (IMDM) supplemented with 10% fetal calf serum and antibiotics (complete medium). COS cells were seeded at a density of ≈1.5×10^5 cells per 17-mm plate and incubated in a humidified 95% air/5% CO2 incubator at 37° C. DNA transfection was performed at 50-60% cell confluency.

[1] = 140 μg/ml, estimated from Kodak film of gel after 3 day exposure

Compound	CPM of run off transcription (HIV-LTR; 100 μg/ml)	% Transcription (% T) (HIV-LTR; 100 μg/ml)	% Inhibitor (100 - % T) (HIV-LTR; 120 μg/ml)	CPM of run off transcription (HIV-LTR; 120 μg/ml)	% Transcription (% T) (HIV-LTR; 120 μg/ml)	% Inhibitor (100 - % T) (HIV-LTR; [1])	% Inhibition of Tat Transactivation (HIV-1 Tat protein; 10 μg/ml)	inhibition at 10 µg/mL (HIV-1 Tat protein)	inhibition at 30 µg/mL (HIV-1 Tat protein)	% Inhibitor (100 - % T) (HIV-LTR; 100 μg/ml)	% Inhibition of Tat Transactivation (HIV-1 Tat protein; 30 μg/ml)
COc1cc(CC(C)C(C)Cc2ccc(O)c(O)c2)ccc1O (stereo not drawn) [FB2, 3'-O-methyl-NDGA]	972 CPM	155%	0%	661 CPM	106%	> 90%	86%	75%	100%		
3'-demethoxy-6-dehydroxy-8-O-demethoxylisoguaiacin [FB3]	169 CPM	27%	91%	55 CPM	9%					73%	69% and 59%
COc1ccc(C[C@@H](C)[C@@H](C)Cc2ccc(O)c(O)c2)cc1O [FB1, 4'-O-methyl-NDGA]	917 CPM	147%	0%	804 CPM	129%	> 50%	82%	86%	100%	0%	99%
C[C@H]1[C@H](c2ccc(O)cc2)c2cc(O)c(O)cc2C[C@H]1C [FB5, 3'-demethoxy-6-O-demethoxylisoguaiacin]	373 CPM	60%	58%	264 CPM	42%			63%	84%	40%	87%
